This passage reports % of control results from ChEMBL document CHEMBL5465560, “Selectivity Literature for EUbOPEN Chemogenomic Library” (2024).

The structures appear in SMILES notation.

In test [1] the target is T1, Mitogen-activated protein kinase kinase kinase 7 (Homo sapiens) (UniProt O43318).
T1 sequence (whole entry): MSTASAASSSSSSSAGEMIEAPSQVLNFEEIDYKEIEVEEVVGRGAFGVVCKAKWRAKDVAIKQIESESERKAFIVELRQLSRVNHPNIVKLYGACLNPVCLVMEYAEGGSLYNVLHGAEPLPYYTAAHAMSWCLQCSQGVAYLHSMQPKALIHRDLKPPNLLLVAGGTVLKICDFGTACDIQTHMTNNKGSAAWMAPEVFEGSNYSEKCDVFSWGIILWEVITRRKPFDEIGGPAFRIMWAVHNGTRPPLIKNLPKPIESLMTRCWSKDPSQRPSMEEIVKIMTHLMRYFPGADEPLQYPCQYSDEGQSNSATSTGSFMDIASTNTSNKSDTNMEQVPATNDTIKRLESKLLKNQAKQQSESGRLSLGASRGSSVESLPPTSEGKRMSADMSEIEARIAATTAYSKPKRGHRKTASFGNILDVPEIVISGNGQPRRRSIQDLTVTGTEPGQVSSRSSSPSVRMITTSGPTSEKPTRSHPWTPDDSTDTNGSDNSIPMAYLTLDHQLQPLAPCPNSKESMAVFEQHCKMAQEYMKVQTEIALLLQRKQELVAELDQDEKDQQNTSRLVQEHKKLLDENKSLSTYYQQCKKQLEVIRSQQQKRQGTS
Description: Selectivity interaction (KinomeScan (DiscoverX)) EUB0000607a MAP3K7. Conditions: at 10 µM.

For test [2], the target named is T2, Peripheral plasma membrane protein CASK (Homo sapiens) (UniProt O14936).
T2 sequence (whole entry): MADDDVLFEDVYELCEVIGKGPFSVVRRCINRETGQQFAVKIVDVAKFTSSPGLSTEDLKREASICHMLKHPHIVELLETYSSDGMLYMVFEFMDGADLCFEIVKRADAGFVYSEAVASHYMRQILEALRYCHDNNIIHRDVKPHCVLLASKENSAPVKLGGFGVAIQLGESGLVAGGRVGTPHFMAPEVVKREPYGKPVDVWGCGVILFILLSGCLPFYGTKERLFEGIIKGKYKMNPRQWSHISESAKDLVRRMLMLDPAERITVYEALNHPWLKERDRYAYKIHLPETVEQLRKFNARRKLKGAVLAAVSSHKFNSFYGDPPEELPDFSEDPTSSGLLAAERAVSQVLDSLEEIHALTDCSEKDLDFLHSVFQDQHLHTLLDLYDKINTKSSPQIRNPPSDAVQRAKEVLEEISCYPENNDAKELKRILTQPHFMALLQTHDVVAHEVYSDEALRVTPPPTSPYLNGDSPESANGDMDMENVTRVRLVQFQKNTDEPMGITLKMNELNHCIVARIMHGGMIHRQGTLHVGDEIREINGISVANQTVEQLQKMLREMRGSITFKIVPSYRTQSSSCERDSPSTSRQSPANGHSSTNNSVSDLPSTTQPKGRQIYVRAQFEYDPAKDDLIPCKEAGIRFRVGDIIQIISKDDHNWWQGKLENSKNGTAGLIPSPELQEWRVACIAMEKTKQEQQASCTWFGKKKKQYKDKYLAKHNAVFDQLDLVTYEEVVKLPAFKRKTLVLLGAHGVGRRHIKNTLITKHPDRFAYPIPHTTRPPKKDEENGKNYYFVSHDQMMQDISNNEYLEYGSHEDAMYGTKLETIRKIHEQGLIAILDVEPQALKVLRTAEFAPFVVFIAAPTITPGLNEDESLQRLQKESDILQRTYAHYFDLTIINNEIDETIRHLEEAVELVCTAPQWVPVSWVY
Description: Selectivity interaction (KinomeScan (DiscoverX)) EUB0000666a CASK. Conditions: at 10 µM.

In test [3] the target is TRAF2 and NCK-interacting protein kinase (Homo sapiens) (UniProt Q9UKE5). Description: Selectivity interaction (KinomeScan (DiscoverX)) EUB0000655a TNIK. To be noted: at 10 µM.
For test [4], the target named is BMP-2-inducible protein kinase (Homo sapiens) (UniProt Q9NSY1). Description: Selectivity interaction (KinomeScan (DiscoverX)) EUB0001079a BMP2K. To be noted: at 1 µM.
In test [5] the target is T3, Dual specificity mitogen-activated protein kinase kinase 3 (Homo sapiens) (UniProt P46734).
T3 sequence (whole entry): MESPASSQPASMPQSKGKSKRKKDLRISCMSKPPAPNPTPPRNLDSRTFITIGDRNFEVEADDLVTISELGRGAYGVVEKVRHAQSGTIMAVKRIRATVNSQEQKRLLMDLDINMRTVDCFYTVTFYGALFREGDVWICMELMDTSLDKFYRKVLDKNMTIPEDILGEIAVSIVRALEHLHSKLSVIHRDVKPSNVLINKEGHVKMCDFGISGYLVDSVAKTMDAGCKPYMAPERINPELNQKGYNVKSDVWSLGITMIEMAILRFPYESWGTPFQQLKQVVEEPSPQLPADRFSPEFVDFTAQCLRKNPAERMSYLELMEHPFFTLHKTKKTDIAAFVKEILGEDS
Description: Selectivity interaction (KinomeScan (DiscoverX)) EUB0000618a MAP2K3. Conditions: at 10 µM.

Test [6] has as its system Hepatocyte growth factor receptor (Homo sapiens), P08581 [M1250T]. Conditions: at 10 µM.

Chain of BMP-2-inducible protein kinase (Homo sapiens) (Q9NSY1 whole entry, looked up): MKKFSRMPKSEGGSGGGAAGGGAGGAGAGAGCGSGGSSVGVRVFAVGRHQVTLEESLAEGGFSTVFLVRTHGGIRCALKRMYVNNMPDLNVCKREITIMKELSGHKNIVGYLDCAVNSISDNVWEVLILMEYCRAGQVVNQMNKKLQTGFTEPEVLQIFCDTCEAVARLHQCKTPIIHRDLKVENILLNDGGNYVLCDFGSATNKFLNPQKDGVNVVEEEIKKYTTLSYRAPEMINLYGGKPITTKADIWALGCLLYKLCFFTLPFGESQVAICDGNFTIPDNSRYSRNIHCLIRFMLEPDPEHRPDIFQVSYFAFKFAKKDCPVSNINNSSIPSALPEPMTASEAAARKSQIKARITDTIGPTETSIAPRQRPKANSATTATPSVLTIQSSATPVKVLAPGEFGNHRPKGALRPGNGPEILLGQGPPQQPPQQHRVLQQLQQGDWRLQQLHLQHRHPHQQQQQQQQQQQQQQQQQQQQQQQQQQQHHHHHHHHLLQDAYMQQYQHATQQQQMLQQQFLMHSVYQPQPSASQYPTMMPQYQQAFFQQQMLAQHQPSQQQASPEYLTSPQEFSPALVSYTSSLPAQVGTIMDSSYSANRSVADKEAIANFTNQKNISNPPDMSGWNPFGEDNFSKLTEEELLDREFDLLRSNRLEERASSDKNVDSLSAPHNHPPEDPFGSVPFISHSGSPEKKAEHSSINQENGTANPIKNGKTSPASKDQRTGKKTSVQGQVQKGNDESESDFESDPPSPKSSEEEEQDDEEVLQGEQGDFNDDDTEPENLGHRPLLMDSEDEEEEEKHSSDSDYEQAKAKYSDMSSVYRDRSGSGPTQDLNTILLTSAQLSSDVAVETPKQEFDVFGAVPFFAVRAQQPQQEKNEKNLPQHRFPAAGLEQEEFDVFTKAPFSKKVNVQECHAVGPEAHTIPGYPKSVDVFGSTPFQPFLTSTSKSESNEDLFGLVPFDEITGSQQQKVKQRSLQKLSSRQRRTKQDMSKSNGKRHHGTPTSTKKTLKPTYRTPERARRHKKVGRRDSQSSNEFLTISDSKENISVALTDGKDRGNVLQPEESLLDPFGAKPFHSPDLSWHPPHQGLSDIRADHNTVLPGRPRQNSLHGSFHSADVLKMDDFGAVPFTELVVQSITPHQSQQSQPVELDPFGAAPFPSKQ
Chain of TRAF2 and NCK-interacting protein kinase (Homo sapiens) (Q9UKE5 whole entry, looked up): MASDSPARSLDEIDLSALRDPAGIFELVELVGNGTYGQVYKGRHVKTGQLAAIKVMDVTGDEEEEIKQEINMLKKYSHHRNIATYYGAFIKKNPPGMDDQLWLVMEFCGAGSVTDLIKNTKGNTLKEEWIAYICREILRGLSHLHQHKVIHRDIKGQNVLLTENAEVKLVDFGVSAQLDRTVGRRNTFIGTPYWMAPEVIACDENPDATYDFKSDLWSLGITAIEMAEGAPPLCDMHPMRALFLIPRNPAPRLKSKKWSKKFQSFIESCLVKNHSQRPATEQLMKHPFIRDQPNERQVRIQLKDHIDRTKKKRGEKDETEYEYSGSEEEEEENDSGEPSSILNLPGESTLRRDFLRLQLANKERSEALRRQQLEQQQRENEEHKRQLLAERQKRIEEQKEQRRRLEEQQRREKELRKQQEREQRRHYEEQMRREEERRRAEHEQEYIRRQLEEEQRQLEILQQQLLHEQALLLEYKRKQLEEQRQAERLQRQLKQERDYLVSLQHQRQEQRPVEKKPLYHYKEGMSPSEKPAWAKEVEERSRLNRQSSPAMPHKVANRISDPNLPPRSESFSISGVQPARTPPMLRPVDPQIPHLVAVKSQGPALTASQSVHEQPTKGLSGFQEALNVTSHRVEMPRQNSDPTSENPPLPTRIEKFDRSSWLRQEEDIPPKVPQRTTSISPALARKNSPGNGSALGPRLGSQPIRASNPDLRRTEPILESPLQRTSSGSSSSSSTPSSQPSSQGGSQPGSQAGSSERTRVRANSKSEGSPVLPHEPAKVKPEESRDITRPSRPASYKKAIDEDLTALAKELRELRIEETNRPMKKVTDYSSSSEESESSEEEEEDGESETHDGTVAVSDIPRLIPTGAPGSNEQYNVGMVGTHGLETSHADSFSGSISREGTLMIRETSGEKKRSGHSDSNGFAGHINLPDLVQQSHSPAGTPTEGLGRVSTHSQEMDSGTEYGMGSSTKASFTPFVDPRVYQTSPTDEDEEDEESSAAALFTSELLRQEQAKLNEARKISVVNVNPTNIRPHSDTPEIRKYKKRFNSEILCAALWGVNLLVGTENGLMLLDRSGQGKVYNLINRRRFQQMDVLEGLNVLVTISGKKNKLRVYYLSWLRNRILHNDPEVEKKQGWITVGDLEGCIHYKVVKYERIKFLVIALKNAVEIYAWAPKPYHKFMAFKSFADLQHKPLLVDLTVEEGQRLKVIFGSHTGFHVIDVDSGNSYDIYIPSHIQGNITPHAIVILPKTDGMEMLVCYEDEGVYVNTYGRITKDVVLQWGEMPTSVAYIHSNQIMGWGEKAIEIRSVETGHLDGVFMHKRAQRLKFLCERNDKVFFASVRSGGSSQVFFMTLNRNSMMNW
Chain of Hepatocyte growth factor receptor (Homo sapiens), P08581 [M1250T] (P08581 whole entry M1250T): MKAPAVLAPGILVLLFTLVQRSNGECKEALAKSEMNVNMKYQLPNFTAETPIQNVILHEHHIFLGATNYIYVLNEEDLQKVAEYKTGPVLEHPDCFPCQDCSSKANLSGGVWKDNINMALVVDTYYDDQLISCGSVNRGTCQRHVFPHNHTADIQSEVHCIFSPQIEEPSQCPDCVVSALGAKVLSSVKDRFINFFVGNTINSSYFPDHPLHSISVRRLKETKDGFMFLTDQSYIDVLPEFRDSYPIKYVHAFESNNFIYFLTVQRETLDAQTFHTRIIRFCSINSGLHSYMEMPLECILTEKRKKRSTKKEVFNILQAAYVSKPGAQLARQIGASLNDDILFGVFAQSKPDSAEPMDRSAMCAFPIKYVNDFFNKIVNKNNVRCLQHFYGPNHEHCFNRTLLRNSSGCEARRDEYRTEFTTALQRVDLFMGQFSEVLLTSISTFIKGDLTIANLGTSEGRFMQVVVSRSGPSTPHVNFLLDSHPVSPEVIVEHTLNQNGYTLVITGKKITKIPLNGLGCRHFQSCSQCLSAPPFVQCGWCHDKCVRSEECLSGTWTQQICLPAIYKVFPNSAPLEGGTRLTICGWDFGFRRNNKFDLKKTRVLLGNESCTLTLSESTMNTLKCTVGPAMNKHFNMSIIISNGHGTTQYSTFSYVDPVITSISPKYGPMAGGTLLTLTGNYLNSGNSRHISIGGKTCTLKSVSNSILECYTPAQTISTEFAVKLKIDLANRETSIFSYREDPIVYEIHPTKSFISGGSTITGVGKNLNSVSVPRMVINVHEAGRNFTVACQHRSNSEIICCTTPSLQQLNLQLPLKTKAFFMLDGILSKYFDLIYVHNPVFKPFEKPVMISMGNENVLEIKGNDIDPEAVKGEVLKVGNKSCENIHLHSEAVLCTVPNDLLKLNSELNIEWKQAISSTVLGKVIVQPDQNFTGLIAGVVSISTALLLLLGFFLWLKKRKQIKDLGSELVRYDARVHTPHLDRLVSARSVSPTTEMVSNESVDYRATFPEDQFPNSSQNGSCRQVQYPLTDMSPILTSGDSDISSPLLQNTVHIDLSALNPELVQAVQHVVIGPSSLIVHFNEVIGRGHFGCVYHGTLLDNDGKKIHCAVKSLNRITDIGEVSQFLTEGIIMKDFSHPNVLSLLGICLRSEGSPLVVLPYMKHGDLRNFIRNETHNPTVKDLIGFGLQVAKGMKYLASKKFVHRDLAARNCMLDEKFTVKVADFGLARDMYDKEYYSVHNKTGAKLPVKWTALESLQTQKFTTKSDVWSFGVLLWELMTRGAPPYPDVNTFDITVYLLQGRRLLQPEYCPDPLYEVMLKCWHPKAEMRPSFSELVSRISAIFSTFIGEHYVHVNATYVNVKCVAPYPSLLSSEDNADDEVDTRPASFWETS

`CNC(=O)Nc1ccc(-c2nc(N3CC4CCC(C3)O4)c3cnn(C4CCC5(CC4)OCCO5)c3n2)cc1`: the % of control in test [1] was determined as 98%. Turning to `O=C(NOC[C@H](O)CO)c1ccc(F)c(F)c1Nc1ccc(I)cc1F`, the % of control in test [2] is 67%. Take `CN(C)CCOc1ccc(-c2nc(-c3ccncc3)c(-c3ccc4c(c3)CC/C4=N\O)[nH]2)cc1`: in test [3], the % of control is 12%.

With `Nc1cnc(N2CCc3cc(S(=O)(=O)Nc4c(F)cc(Cl)cc4F)cc(N4CCCC4=O)c32)nc1` [TP-020n], the % of control in test [4] turned out to be 88%. For the compound `O[C@H]1CC[C@H](Nc2ncc3nc(Nc4c(F)cc(F)cc4F)n([C@H]4CCOC4)c3n2)CC1`, in test [5], the % of control stood at 43%.

In test [6], `COCC(=O)NC/C=C/c1ccc2ncnc(Nc3ccc(Oc4ccc(C)nc4)c(C)c3)c2c1` [CP-724714] showed a % of control of 100%.
